Test results as given in paper PMC6736360, “P-Glycoprotein–Mediated Efflux Reduces the In Vivo Efficacy of a Therapeutic Targeting the Gastrointestinal Parasite Cryptosporidium” (The Journal of Infectious Diseases, 2019).
Read-outs that look alike come from different tables or passages of the source.

Columns and labels:
Cryptosporidium parvum = assay: C. parvum growth inhibition, nonpolarized HCT-8 coculture assay; type: cell-based
Text: Information regarding C. parvum growth inhibition by BKIs, the hollow fiber model, liquid chromatography–tandem mass spectrometry (LC-MS/MS) methods, and the interferon γ (IFN-γ) knockout (KO) mouse model of C. parvum infection has been described in detail previously [[15], [20–23]]. Information on BKI permeability, LC-MS/MS quantification of elacridar, and quantification of Cryptosporidium by polymerase chain reaction analysis is described in the Supplementary Materials. Unless noted otherwise, statistical significance was determined with an unpaired Student t test, using a significance level of 0.05.
To evaluate the potential impact of P-gp efflux on BKI1318 in vitro efficacy, in vitro assays with polarized and nonpolarized HCT-8 cells were evaluated. The nonpolarized HCT-8 coculture assay to screen anti-Cryptosporidium drug candidates has been previously reported by us in detail. […] Based on the reported elacridar half maximal inhibitor concentration for the inhibition of P-gp, the P-gp activity was predicted to be reduced with both elacridar concentrations. […] Elacridar alone had no effect on C. parvum levels.

C. parvum [1] = assay: IFN-γ KO mouse model of Cryptosporidium infection; type: in vivo, mice; conditions: IFN-γ KO mice
Method: Efficacy in female IFN-γ KO mice (B6.129S7-Ifngtm1Ts/J; Jackson Laboratories) aged 8–10 weeks was evaluated as previously described. Beginning on day 6 after infection, mice were dosed with 30 mg/kg BKI1318 suspended in 0.2 mL of vehicle, 15 mg/kg elacridar in 0.1 mL of vehicle followed 15 minutes later by 30 mg/kg BKI1318 in 0.1 mL of vehicle, or 0.2 mL of vehicle only once daily for 5 days. Fecal specimens were collected daily from each group and weighed. Each fecal sample was checked for luminescence on the day of collection, and the number of relative light units was determined and normalized to fecal sample weights.

C. parvum [2] = assay: Hollow fiber in vitro Cryptosporidium culture with polarized HCT-8 cells; type: cell-based, Cryptosporidium parvum
Method: C. parvum was cultured using a hollow fiber bioreactor modified for evaluation of potential chemotherapeutic compounds [[21–23]]. Briefly, the system used a 20-kD MWCO polysulfone fiber cartridge (FiberCell Systems, Frederick, MD). HCT-8 cells were grown on the outer surface of the fibers (extracapillary space), and reservoirs were used to provide nutrients to the cells. When the glucose concentration decreased to at least 2 g/L, the extracapillary space was inoculated with 10^6C. parvum (Iowa isolate, Bunch Grass Farms, Deary, ID). […] Compound concentration was reduced over time by the flow of medium through the extracapillary and intracapillary spaces. Samples were removed from the extracapillary space once per day for evaluation of parasite numbers.
C. parvum growth was determined by analysis of the amount of C. parvum 18S-rRNA present and compared to the HCT-8 18S-rRNA as previously described^3. Briefly this was performed by centrifugation at 14,000 x g for 5 min of 0.5 mL samples collected from the extracapillary space (ECS). The pellet was resuspended in 100 µL of iScript buffer and subject to 6-freeze/thaw cycles comprising 1 min in liquid nitrogen followed by 1.5 min at 70 °C. The lysate was collected by centrifugation at 16,162 x g for 5 min, and the RNA purified according to the manufacturer’s instructions (iScriptTM, RT-qPCR sample preparation kit, Bio-Rad Laboratories). C. parvum was enumerated by quantitating the Cp18S-rRNA using the following specific forward and reverse primers - Cp18S-995F: 5’-[…]-3’ and Cp18S-1206R: 5’-[…]-3’ and compared to the human Hs18S-rRNA using the following primer sets - Hs18S-F1373: 5’-[…]-3’ and Hs18S-R1561: 5’-[…]-3’. The amount of 18S-rRNA was determined using 5 ng samples by RT-qPCR as described the manufacturer instructions using a Luna Universal One-Step® RT-qPCR kit (New England Biologics) and a Quant Studio 6 Flex 44 instrument. The cell number is calculated from the CT means using a set of standards prepared from 10^4, 10^5, and 10^6 C. parvum oocysts and compared to 10^4, 10^5, and 10^6 HCT-8 cells.

[3] = Mouse gastrointestinal tissue pharmacokinetics; type: in vivo, mice; conditions: mouse, oral; for AUC(0-t): read-out: AUC0-12; for Cmax: read-out: Observed Cmax; for Tmax: read-out: Tmax
Method: At multiple time points following BKI1318 administration, mice were euthanized, and the GI tract was separated into segments corresponding to the duodenum, jejunum, ileum, and cecum/colon. […] At 0.5, 1, 2, 4, 8, and 12 hours, three mice in each group were sacrificed by cervical dislocation, and the duodenum, jejunum, ileum, and cecum/ascending colon were immediately collected. Each section of the GI tract was flushed with Dulbecco's phosphate-buffered saline, weighed, and placed in storage at -80°C. On the day of homogenization, 0.9% NaCl was added to each sample to achieve 200 mg/mL tissue concentration. Samples were homogenized using a handheld motorized homogenizer (Fisher Scientific, Waltham, MA) on ice and stored at -20°C until extraction and analysis. To report tissue concentrations, 1 gram of tissue was estimated to be 1 mL of volume.

P-gp = target: T1, P-gp (Homo sapiens, UniProt P08183); assay: Caco-2 P-gp efflux assay +/- valspodar; type: in vitro ADME; conditions: Caco-2
T1 construct: endogenous in cells; host or cells: Caco-2 cells (clone C2BBe1, ATCC); assay run by Absorption Systems LP
T1 sequence (P08183 whole entry): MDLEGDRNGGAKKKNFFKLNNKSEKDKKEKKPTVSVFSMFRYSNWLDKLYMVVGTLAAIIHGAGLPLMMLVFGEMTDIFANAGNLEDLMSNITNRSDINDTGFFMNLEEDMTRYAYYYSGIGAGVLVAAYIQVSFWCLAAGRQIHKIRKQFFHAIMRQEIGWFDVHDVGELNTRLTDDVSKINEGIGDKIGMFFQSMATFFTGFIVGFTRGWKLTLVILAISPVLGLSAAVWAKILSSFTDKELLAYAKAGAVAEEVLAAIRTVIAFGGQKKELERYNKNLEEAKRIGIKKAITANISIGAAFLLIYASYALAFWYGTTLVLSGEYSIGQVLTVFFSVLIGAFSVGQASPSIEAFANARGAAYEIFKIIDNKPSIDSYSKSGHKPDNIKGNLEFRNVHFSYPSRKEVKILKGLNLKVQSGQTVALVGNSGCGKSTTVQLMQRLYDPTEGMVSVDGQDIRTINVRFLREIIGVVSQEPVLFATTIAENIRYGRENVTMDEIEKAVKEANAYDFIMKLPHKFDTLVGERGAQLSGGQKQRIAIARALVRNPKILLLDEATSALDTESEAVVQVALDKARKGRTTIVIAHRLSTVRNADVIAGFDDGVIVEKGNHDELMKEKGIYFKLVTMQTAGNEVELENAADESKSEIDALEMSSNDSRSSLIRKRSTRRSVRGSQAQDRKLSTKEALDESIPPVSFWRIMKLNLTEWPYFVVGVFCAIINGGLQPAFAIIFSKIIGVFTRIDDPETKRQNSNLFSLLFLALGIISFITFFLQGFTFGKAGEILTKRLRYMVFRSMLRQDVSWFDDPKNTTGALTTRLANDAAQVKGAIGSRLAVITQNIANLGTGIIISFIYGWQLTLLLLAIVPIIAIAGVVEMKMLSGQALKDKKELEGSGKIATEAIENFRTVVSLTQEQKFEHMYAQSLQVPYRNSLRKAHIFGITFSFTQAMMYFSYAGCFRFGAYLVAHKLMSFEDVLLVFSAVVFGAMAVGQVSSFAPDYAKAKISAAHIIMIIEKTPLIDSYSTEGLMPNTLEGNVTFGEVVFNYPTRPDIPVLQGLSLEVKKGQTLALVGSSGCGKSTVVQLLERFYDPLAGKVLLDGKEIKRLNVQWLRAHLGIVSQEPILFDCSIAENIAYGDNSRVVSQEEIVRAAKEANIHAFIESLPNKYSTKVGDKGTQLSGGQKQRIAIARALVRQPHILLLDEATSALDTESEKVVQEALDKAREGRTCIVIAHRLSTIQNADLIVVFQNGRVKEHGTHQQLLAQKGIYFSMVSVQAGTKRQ
Text: Given the well-known role of P-gp in the efflux of many diverse drugs, the adenosine triphosphate–binding cassette (ABC) transporter was specifically chosen for initial studies, to identify the transporter responsible for BKI1318’s relatively low Papp. A Caco-2 system with overexpression of P-gp was used to verify the role of P-gp in BKI1318 transport (Supplementary Table 2). […] It should be noted that this experiment characterized the importance of P-gp with a single concentration of BKI1318. The kinetics of BKI1318 transport mediated by P-gp are still unknown, and it is not clear how the fraction of absorption mediated by P-gp transport will change with different concentrations of BKI1318.
(§1) To ensure no damage was inflicted to the cell monolayers during the flux period, lucifer yellow flux was also measured post-experimentally for each monolayer. To determine whether BKIs 1294, 1369, and 1318 were substrates of P-gp in vitro, P-gp efflux was characterized using the Caco-2 permeability assay protocol with a few modifications. The dosing solution concentration was 5 μM of BKI in the assay buffer +/- 1 μM valspodar. Cells were first pre-incubated for 30 minutes with HBSS containing +/- 1 μM valspodar. Cell monolayers were dosed on the apical side (A?B) or basolateral side (B?A), and incubated at 37°C with 5% CO2 in a humidified incubator. Samples were taken from the donor and receiver chambers at 120 minutes. Each determination was performed in duplicate.

Cryptosporidium = tested on: Cryptosporidium; design: method as in PMID 28329187; conditions: cited from earlier work
C. parvum [4] = tested on: C. parvum; design: method as in PMID 28329187; conditions: previously published study; cited from earlier work
[5] = Caco-2 trans-well apparent permeability assay; type: in vitro ADME; conditions: human, pH 7.4
Method: To initially characterize the permeability of BKIs 1294, 1369, and 1318, the software MedChem Designer (Simulations +, Lancaster, CA) was used to predict the Peff. The in vitro apparent permeability (Papp) was carried out by Absorption Systems LP (Exton, PA) with a Caco-2 trans-well assay. Caco-2 cells (clone C2BBe1) were obtained from American Type Culture Collection (Manassas, VA) were grown to confluence on collagen-coated, microporous membranes in 12-well assay plates. The permeability assay buffer was Hanks’ balanced salt solution (HBSS) containing 10 mM HEPES and 15 mM glucose at a pH of 7.4. The buffer in the receiver chamber also contained 1% bovine serum albumin. The dosing solution concentration was 5 µM BKI in assay buffer, and the cell monolayers were dosed on the apical side (A?B) or basolateral side (B?A) and incubated at 37°C with 5% CO2 in a humidified incubator. After 120 minutes, samples were taken from the donor and receiver chambers in duplicate. The Papp was calculated with equation (1) and the percent recovery with equation (2).
Papp = (dCr/dt) × Vr/(A × CA) (1)
Percent Recovery = 100 × ((Vr × Cr^final) + (Vd × Cd^final))/(Vd × […]) (2)
where dCr/dt is the slope of the cumulative concentration in the receiver compartment versus time in µM s^-1; Vr is the volume of the receiver compartment in cm^3; Vd is the volume of the donor compartment in cm^3; A is the area of the insert (1.13 cm^2 for 12-well); CA is the average of the nominal dosing concentration and the measured 120 minute donor concentration in µM; CN is the nominal concentration of the dosing solution in µM; Cr^final is the cumulative receiver concentration in µM at the end of the incubation period; Cd^final is the concentration of the donor in µM at the end of the incubation period.
as §1

[6] = In vitro solubility at pH 2 and 6.5; type: physicochemical; conditions: pH 2, represents stomach; read-out: Solubility (pH 2)
Method: Figure 1. Structures, in vitro efficacy, and physicochemical properties of bumped kinase inhibitors (BKIs). […] Solubilities for each BKI were measured at pH 2 and 6.5, to represent the stomach and small intestinal environments, respectively. The human effective permeability (Peff) was predicted as described in Materials and Methods.

[7] = cecum/colon, elacridar in Cecum/Colon
[8] = duodenum, elacridar in Duodenum

In the case of `COc1cc2c(cc1OC)CN(CCc1ccc(NC(=O)c3cccc4c(=O)c5cccc(OC)c5[nH]c34)cc1)CC2` [elacridar, reference compound], the “Effect on C. parvum levels” value (Cryptosporidium parvum; nonpolarized HCT-8 cells, compound alone) is reported as “no effect”, the “Effect on Cryptosporidium infection, administered alone” value (C. parvum [1]) is reported as “no effect” and the “Effect on C. parvum levels/growth” value (C. parvum [2]; hollow fiber model, compound alone, 80 µM once daily) is reported as “no effect”. For the same compound, the AUC(0-t) [3, 7] was 12.6 ± 8.5 µM·h, the Cmax [3, 7] was 3.3 ± 3.1 µM and the Tmax [3, 7] was 6 h. For the same compound, the AUC(0-t) [3, 8] was 118 ± 4.9 µM·h, the Cmax [3, 8] was 61.2 µM and the Tmax [3, 8] was 0.6 h. It also gave an AUC(0-t) ([3]; ileum, elacridar in Ileum) of 170 ± 45.7 µM·h, a Cmax ([3]; ileum, elacridar in Ileum) of 35.2 µM and a Tmax ([3]; ileum, elacridar in Ileum) of 1.7 h. The AUC(0-t) ([3]; jejunum, elacridar in Jejunum) was 104 ± 21.4 µM·h, the Cmax ([3]; jejunum, elacridar in Jejunum) was 32.6 µM and the Tmax ([3]; jejunum, elacridar in Jejunum) was 0.6 h.
For `C[C@H]1O[C@@H](O[C@H]2[C@@H](O)C[C@H](O[C@H]3[C@@H](O)C[C@H](O[C@H]4CC[C@@]5(C)[C@H](CC[C@@H]6[C@@H]5C[C@@H](O)[C@]5(C)[C@@H](C7=CC(=O)OC7)CC[C@]65O)C4)O[C@@H]3C)O[C@@H]2C)C[C@H](O)[C@@H]1O` [digoxin, reference compound], the “P-gp Substrate Classification” value (P-gp) was “Positive”.
In the case of `CCOc1ccc2cc(-c3nn(CC4CCN(C)CC4)c4ncnc(N)c34)ccc2c1` [BKI1294], the EC50 (Cryptosporidium parvum; Cryptosporidium parvum, HCT-8, in vitro, read-out: C. parvum EC50) is listed as 2700 nM, the “Efficacy in neonatal mouse model of Cryptosporidium infection” value (Cryptosporidium) is listed as “efficacious” and the “C. parvum reduction in mouse model of cryptosporidiosis” value (C. parvum [4]) is listed as > 2 log. For the same compound, the “Reduction of C. parvum levels over the course of the study” value (C. parvum [2]; hollow fiber model, polarized HCT-8 cells) was > 3 orders of magnitude, the “Reduction in C. parvum level by 24 hours after the final dose, on day 4” value (C. parvum [2]; hollow fiber, once per day for 4 days, BKI1294 80 µM, BKI1369 40 µM) was > 6 log and the recovery at 120 min, 5 µM ([5]; Caco-2 assay, A→B for BKI 1294, read-out: Percent recovery) was 62%. The Papp A→B at 120 min, 5 µM ([5]; Caco-2, 5 µM, 120 minutes) was 12.7 ×10⁻⁶ cm/s, the Papp B→A at 120 min, 5 µM ([5]; Caco-2, 5 µM, 120 minutes) was 22.6 ×10⁻⁶ cm/s and the “P-gp Substrate Classification” value (P-gp) was “Negative”. For the same compound, the solubility [6] was > 100 µM.
Compound `CC(C)NCC(O)COc1cccc2ccccc12` (stereo not drawn) [Propranolol, reference compound] has a Papp A→B at 120 min, 5 µM ([5]; Caco-2, 5 µM, 120 minutes) of 23.2 ×10⁻⁶ cm/s.
